Patent US5198533A, “LHRH antagonists” (The Administrators of the Tulane Educational Fund, priority 1988, dated 1993)
Where a SMILES comes first, the peptide text is derived from it. [ ]: non-standard residue; d: D form. dPhe(4-Cl) = N[C@H](Cc1ccc(Cl)cc1)C(=O)O; d2Nal = N[C@H](Cc1ccc2ccccc2c1)C(=O)O; dCit = NC(=O)NCCC[C@@H](N)C(=O)O; d3Pal = N[C@H](Cc1cccnc1)C(=O)O

Tested on: edema of the face and extremities
Assay: edematogenic test of Schmidt, et al.
Assay type: in vivo, rat
Settings: 1.5 mg/kg s.c. once a day on two consecutive days
Protocol: In the edematogenic test of Schmidt, et al. (Contraception, 29, 283-289, 1984), however, a marked difference can be found between the control peptides and the peptides of the present invention. The control […] 1.50 mg/kg. No such reaction can be observed with the peptides of the present invention when given at a subcutaneous dose of 1.5 mg/kg.
In the tests as run, the rats were assigned to three groups of […] per group per compound tested. Comparison was made with a known prior art compound designated ORG 30276 namely (N-Ac-D-p-Cl-Phe^1,2,D-Trp^3,D-Arg^6,D-Ala^10)-LHRH. The groups were injected subcuntaneously once a day on two consecutive days with the LHRH antagonists at a dose level of 1.5 mg/kg. One control group was injected with diluent only. The rats were observed during five hours each day. Reactions of the rats were classified as follows: NR no apparent reaction, PR partial responders: edema of the nasal and paranasal area, FR full responders: facial edema with edematous extremities.

CC(=O)N[C@H](Cc1ccc2ccccc2c1)C(=O)N[C@H](Cc1ccc(Cl)cc1)C(=O)N[C@H](Cc1cccnc1)C(=O)N[C@@H](CO)C(=O)N[C@@H](Cc1ccc(O)cc1)C(=O)N[C@H](CCCNC(N)=O)C(=O)N[C@@H](CC(C)C)C(=O)N[C@@H](CCCNC(=N)N)C(=O)N1CCC[C@H]1C(=O)N[C@H](C)C(N)=O [EX XXVI, Ac-D-Nal-D-Phe(4-Cl)-D-Pal(3)-Ser-Tyr-D-Cit-Leu-Arg-Pro-D-AlaNH2] (Ac-[d2Nal][dPhe(4-Cl)][d3Pal]SY[dCit]LRP[dA]-NH2)
2nd Day PR (number of rats, partial responders: edema of the nasal and paranasal area) (* = very light edema of the face): 0 | 1st Day FR (number of rats, full responders: facial edema with edematous extremities) (observed five hours each day): 0 | 1st Day NR (number of rats, no apparent reaction) (observed five hours each day): 8 | 1st Day PR (number of rats, partial responders: edema of the nasal and paranasal area) (observed five hours each day): 0 | 2nd Day FR (number of rats, full responders: facial edema with edematous extremities) (observed five hours each day): 0 | 2nd Day NR (number of rats, no apparent reaction) (observed five hours each day): 8
